Experimental data reported in the NIST ThermoML archive (doi:10.1021/je2001649).
Numbers after ± are expanded uncertainties.

Conditions: Crystal; visual observation

c1ccc2c(c1)Nc1ccccc1S2 [10H-phenothiazine]
Normal melting temperature: 183 ± 1 °C
